Laboratory results: patent US20150064273A1, “Mesenchymal Stem Cells Conditioned Medium and Methods of Generating and Using the Same” (Gamida-Cell Ltd., priority 2012, published 2015)

How the values were obtained:
Assay type in all cases: cell-based
mesenchymal stem cells = assay: Mesenchymal stem cell culture with growth factors with or without nicotinamide, cell counts
Description: Isolation: Bone marrow derived and adipose tissue derived mesenchymal cells were isolated based on their plastic adherence potential in expansion medium containing: High glucose DMEM and 10% Fetal Bovine Serum (FBS, Hyclone, Logan, Utah, USA) supplemented with 0.05 mg/ml Gentamicin (Sigma) and 2 mM L-glutamine (Biological Industries, Israel). Cells were allowed to adhere for 3-4 days and non-adherent cells were washed out with medium changes. The medium was further exchanged with fresh medium every 3-4 days.
Maintenance and expansion: Once adherent cells reached approximately 80-90% confluency, they were detached with 0.25% trypsin-EDTA (Sigma), washed twice in DMEM and 10% Fetal Bovine Serum, with centrifugation, 400 g, 5 minutes, and re-plated at a 1:2 to 1:1000 dilution under the same culture conditions.
Measurement of number of cells in culture: Cell number was measured using Cedex Automated Cell Counter (Innovatis). The cells were diluted 1:2 in Trypan Blue (Sigma) and cell number was measured automatically under microscope.
Treatment of mesenchymal cultures with nicotinamide: Mesenchymal cultures were initiated as described above, and supplemented with nicotinamide 1-15 mM alone, or in combination with growth factors or growth factors alone, incubated at 37° C. in a humidified atmosphere of 5% CO2 in air. At each passage and at each medium exchange, the cultures were supplemented with mesenchymal medium, nicotinamide and growth factors.
Mesenchymal stem cells were selected and cultured in the presence of particular growth factors (basic fibroblast growth factor—bFGF, heparin binding epidermal growth factor—HB-EGF, fibroblast growth factor 4—FGF-4 and platelet derived growth factor, homodimer, subunit B, PDGF-BB) in the presence and absence of nicotinamide for three or four passages and the number and size of the cells was calculated.
Two concentrations (10 and 50 ng/ml) of each one of the following factors were examined.
In addition, the influence of the combination: 5 mM NAM+50 ng/ml FGF4+50 ng/ml PDGF-BB was examined in comparison to an individual supplement.

[1] = tested on: bone marrow derived mesenchymal stem cells; assay: Bone marrow derived MSC seeding and expansion with nicotinamide
Description: FIG. 11 is a bar graph illustrating % of BM derived adherent cells expressing mesenchymal stem cells markers in culture seeded +/−NAM, prior to the first passage. Mononuclear cells were isolated from bone marrow using Ficoll and the “plastic adherence” method in the presence or absence of Nicotinamide. Non-adherent cells were washed away 3-4 days later and the media was replaced every 3-4 days. FACS analysis was performed in order to obtain expression levels of surface molecules prior to the first passage (8 days post-seeding). Isolation: Bone marrow derived and adipose tissue derived mesenchymal cells were isolated based on their plastic adherence potential in expansion medium containing: High glucose DMEM and 10% Fetal Bovine Serum (FBS, Hyclone, Logan, Utah, USA) supplemented with 0.05 mg/ml Gentamicin (Sigma) and 2 mM L-glutamine (Biological Industries, Israel). Cells were allowed to adhere for 3-4 days and non-adherent cells were washed out with medium changes. The medium was further exchanged with fresh medium every 3-4 days. Maintenance and expansion: Once adherent cells reached approximately 80-90% confluency, they were detached with 0.25% trypsin-EDTA (Sigma), washed twice in DMEM and 10% Fetal Bovine Serum, with centrifugation, 400 g, 5 minutes, and re-plated at a 1:2 to 1:1000 dilution under the same culture conditions. Measurement of number of cells in culture: Cell number was measured using Cedex Automated Cell Counter (Innovatis). The cells were diluted 1:2 in Trypan Blue (Sigma) and cell number was measured automatically under microscope. Treatment of mesenchymal cultures with nicotinamide: Mesenchymal cultures were initiated as described above, […], or in combination with growth factors or growth factors alone, incubated at 37° C. in a humidified atmosphere of 5% CO2 in air. At each passage and at each medium exchange, the cultures were supplemented with mesenchymal medium, nicotinamide and growth factors.

[2] = tested on: Transforming Growth Factor-β (TGFβ); assay: TGFβ content of MSC conditioned medium by ELISA; conditions: passage 4; 5 mM NAM, 50 ng/ml FGF4; serum- and FGF4-free medium for 24 hours
Description: (§1) FIG. 23 is a bar graph illustrating enhancement of Transforming Growth Factor-β (TGFβ) content of conditioned medium from nicotinamide and FGF4-treated MSC cultures. Bone marrow mesenchymal stem cells were isolated and cultured as in FIG. 22 above. Cultured media was changed to medium without fetal bovine serum or FGF4 24 hours prior to passage 4, collected from the passage 4 cultures and assayed for TGFβ content by ELISA. −NAM, −FGF4=control; +NAM−FGF4=5 mM NAM, +NAM+FGF4=5 mM NAM+50 ng/ml FGF4. Note the significant effect of combined FGF4 and nicotinamide on TGFβ secretion; Mesenchymal stem cells cultured with nicotinamide and FGF4 have enhanced expansion potential, and maintain an undifferentiated state, compared to mesenchymal stem cells cultured in unsupplemented medium, or mesenchymal stem cells cultured with added nicotinamide alone. In order to assess whether mesenchymal stem cells cultured with nicotinamide or nicotinamide and FGF4 modify the culture medium in a unique manner, secretion of biologically active molecules into the culture medium was measured by ELISA, after depletion of the FGF4 from the medium.

[3] = tested on: Keratinocyte Growth Factor (KGF); assay: KGF content of MSC conditioned medium by ELISA; conditions: passage 4; 5 mM NAM, 50 ng/ml FGF4; serum- and FGF4-free medium for 24 hours
Description: as §1, with “24” for “23”, “Keratinocyte” for “Transforming”, “Factor (KGF)” for “Factor-β (TGFβ)”, “KGF” for “TGFβ”

## NC(=O)c1cccnc1 [nicotinamide, Nicotinamide]
Mesenchymal stem cells; 5 mM NAM with FGF4 50 ng/ml
  effect on the ability of FGF4 to increase proliferation of mesenchymal stem cells: potentiating effect
Mesenchymal stem cells; cultured with nicotinamide
  proliferative capacity of large batches of MSCs: enhanced proliferative capacity
[1]; low concentration of nicotinamide, e.g. 0.1 mM
  expansion rate of bone marrow derived MSCs: insignificant effect
[1]; nicotinamide added from initiation of culture and at each passage
  MSC doubling time: decreasing doubling time
[1]; seeded with or without nicotinamide
  seeding efficacy (selection) of bone marrow derived MSCs: increased the seeding efficacy
[2]
  TGF-β level in conditioned medium: elevated levels
[3]
  KGF level in conditioned medium: elevated levels
